Data on 25 molecules can be found in patent US8987268B2, “Pyrrolopyridazine JAK3 inhibitors and their use for the treatment of inflammatory and autoimmune diseases” (Bristol-Myers Squibb Company, priority 2011, dated 2015).

Counter-ions that a name gives are not always drawn.

The target of one experiment is GST-JAK3 enzyme (Homo sapiens (Human), UniProt P52333). The experiment can be described thus: JAK3 Kinase Assay Protocol (Caliper). It counts as biochemical. The settings on record: JAK3 kinase inhibition; read-out: LLE_JAK3_FB (IC50). How it is done: JAK3 Kinase Assay Protocol (Caliper)
(§1) The assay reactions were performed in U-bottom 384-well plates. […] The reaction was initiated by the combination of GST-JAK3 enzyme with substrates and test compounds. The reactions were incubated at room temperature for 3 hours and terminated by adding 60 μl of 35 mM EDTA to each sample. Each reaction mixture was analyzed on the Caliper LabChip 3000 (Caliper, Hopkinton, Mass.) by electrophoretic separation of the fluorescent substrate and phosphorylated product. […] Compounds were dissolved at 10 mM in dimethylsulfoxide (DMSO) and evaluated at eleven concentrations. IC50 values were derived by non-linear regression analysis.

Another experiment concerns the target GST-JAK1 enzyme (Homo sapiens (Human), UniProt P23458). The experiment in a line: JAK1 Kinase Assay Protocol. The format is biochemical. As to conditions: JAK1 kinase inhibition; read-out: LLE_JAK1 (IC50). Here is the method: JAK1 Kinase Assay Protocol
as §1, with “GST-JAK1” for “GST-JAK3”

Chain of GST-JAK3 enzyme (P52333 whole entry): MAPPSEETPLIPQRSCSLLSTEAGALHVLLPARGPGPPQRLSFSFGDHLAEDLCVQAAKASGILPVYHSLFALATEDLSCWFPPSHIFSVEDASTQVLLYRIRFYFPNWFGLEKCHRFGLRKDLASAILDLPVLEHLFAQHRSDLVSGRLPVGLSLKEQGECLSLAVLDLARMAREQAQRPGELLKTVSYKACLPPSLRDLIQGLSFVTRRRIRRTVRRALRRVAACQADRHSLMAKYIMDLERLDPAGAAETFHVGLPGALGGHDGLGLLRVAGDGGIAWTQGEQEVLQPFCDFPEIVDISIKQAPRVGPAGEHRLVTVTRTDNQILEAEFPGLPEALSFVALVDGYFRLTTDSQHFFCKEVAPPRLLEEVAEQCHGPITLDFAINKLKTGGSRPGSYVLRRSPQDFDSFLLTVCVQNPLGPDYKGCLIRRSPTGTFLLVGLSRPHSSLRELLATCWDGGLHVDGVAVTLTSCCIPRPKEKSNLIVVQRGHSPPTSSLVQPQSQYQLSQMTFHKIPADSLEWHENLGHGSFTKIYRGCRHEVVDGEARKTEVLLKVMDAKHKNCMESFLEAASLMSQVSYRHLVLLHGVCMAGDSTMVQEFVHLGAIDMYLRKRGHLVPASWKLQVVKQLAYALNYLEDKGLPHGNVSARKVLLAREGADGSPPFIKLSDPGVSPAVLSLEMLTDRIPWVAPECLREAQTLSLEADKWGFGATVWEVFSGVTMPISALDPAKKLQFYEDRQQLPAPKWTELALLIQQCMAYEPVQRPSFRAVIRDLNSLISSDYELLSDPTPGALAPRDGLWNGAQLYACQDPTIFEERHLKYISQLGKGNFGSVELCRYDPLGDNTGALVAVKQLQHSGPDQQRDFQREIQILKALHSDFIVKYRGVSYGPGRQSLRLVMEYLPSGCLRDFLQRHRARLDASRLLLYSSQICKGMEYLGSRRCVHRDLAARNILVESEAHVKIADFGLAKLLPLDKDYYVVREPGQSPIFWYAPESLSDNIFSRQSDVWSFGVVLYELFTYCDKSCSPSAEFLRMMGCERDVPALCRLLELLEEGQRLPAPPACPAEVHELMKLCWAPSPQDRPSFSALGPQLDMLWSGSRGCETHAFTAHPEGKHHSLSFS
Chain of GST-JAK1 enzyme (P23458 whole entry): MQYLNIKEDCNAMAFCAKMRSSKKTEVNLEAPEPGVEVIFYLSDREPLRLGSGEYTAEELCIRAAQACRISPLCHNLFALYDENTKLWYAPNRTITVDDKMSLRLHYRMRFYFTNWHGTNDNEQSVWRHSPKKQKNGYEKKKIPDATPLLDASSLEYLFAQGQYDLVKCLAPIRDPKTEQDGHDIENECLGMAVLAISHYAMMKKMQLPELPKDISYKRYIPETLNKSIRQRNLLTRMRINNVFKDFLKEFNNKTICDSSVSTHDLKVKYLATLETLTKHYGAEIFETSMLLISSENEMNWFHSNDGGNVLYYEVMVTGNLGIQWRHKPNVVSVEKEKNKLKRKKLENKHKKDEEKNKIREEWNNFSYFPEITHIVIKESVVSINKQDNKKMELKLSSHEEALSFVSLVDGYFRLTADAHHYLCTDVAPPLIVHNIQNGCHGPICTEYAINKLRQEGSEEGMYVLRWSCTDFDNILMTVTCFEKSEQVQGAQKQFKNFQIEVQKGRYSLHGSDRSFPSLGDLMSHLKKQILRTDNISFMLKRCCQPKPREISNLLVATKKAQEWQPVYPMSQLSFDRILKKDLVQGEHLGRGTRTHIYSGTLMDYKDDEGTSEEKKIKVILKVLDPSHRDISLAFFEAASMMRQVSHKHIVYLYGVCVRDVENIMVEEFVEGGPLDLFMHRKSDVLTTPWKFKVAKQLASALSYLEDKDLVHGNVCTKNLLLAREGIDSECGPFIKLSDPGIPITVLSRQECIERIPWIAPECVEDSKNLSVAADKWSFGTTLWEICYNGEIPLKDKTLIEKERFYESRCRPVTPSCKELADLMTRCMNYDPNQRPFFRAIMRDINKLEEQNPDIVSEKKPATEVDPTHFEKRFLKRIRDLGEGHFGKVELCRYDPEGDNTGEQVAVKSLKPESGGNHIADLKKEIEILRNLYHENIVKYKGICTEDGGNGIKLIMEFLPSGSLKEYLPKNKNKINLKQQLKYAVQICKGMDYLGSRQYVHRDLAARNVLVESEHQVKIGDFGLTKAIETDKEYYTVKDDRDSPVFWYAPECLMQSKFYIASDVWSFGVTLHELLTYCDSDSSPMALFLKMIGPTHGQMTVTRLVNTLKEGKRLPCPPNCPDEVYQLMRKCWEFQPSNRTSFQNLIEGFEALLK

For the molecule `NC(=O)c1cnn2cc(-c3cncnc3)cc2c1NC1CCOCC1` [Example 32, 6-(5-pyrimidinyl)-4-(tetrahydro-2H-pyran-4-ylamino)pyrrolo[1,2-b]pyridazine-3-carboxamide], the 50% inhibitory concentration (IC50) was determined as 148 nM at GST-JAK3 enzyme and 813 nM on GST-JAK1 enzyme.

As to `CC[C@H]1CN(c2ncc(C#N)s2)C[C@H]1Nc1c(C(N)=O)cnn2cc(-c3cnn(CC(C)C)c3)cc12` [Example 183], the IC50 on GST-JAK3 enzyme turned out to be 0.2 nM; at GST-JAK1 enzyme, 0.8 nM.

For `CNC(=O)Cn1cc(-c2cc3c(N[C@@H]4CN(c5ccc(Cl)cn5)C[C@@H]4C)c(C(N)=O)cnn3c2)cn1` [Example 188, 4-(((3S,4S)-1-(5-chloropyridin-2-yl)-4-methylpyrroldin-3-yl)amino)-6-(1-(2-(methylamino)-2-oxoethyl)-1H-pyrazol-4-yl)pyrrolo[1,2-b]pyridazine-3-carboxamide], the results for the IC50 on GST-JAK3 enzyme and at GST-JAK1 enzyme were 0.5 nM and 0.4 nM, respectively.

As for `COc1ccc(-c2cc3c(N[C@@H]4CN(S(C)(=O)=O)C[C@@H]4OC)c(C(N)=O)cnn3c2)cn1` [Example 315, 4-((3R,4S)-4-methoxy-1-(methylsulfonyl)pyrrolidin-3-ylamino)-6-(6-methoxypyridin-3-yl)pyrrolo[1,2-b]pyridazine-3-carboxamide], the half-maximal inhibitory concentration (IC50) on GST-JAK3 enzyme was 8.9 nM; on GST-JAK1 enzyme, 8 nM.

For `C[C@@H]1[C@H]2CN(C(=O)C(C)(C)O)C[C@H]2C[C@H]1Nc1c(C(N)=O)cnn2cc(-c3cnc(N)nc3)cc12` [Example 62, 6-(2-amino-5-pyrimidinyl)-4-(((3aS,4R,5R,6aS)-2-(2-hydroxy-2-methylpropanoyl)-4-methyloctahydrocyclopenta[c]pyrrol-5-yl)amino)pyrrolo[1,2-b]pyridazine-3-carboxamide], the IC50 on GST-JAK3 enzyme was determined as 1 nM; on GST-JAK1 enzyme, 3.6 nM.

With `CCOc1ncc(-c2cc3c(N[C@@H]4CN(C(=O)C5(C#N)CC5)C[C@@H]4CF)c(C(N)=O)cnn3c2)cn1` [Example 281, 4-((3S,4S)-1-(1-cyanocyclopropanecarbonyl)-4-(fluoromethyl)pyrrolidin-3-ylamino)-6-(2-ethoxypyrimidin-5-yl)pyrrolo[1,2-b]pyridazine-3-carboxamide], the figures for the IC50 on GST-JAK3 enzyme and on GST-JAK1 enzyme were 11.8 nM and 1.8 nM, respectively.

`CC[C@@H]1CN(C(=O)[C@H](C)O)CC[C@H]1Nc1c(C(N)=O)cnn2cc(-c3ccnc(OC)c3)cc12` [Example 134, 4-((3R,4R)-3-ethyl-1-((S)-2-hydroxypropanoyl)piperidin-4-ylamino)-6-(2-methoxypyridin-4-yl)pyrrolo[1,2-b]pyridazine-3-carboxamide]: the IC50 at GST-JAK3 enzyme turned out to be 7 nM; on GST-JAK1 enzyme, 4.5 nM.

For `CC[C@@H]1CN(S(C)(=O)=O)CC[C@H]1Nc1c(C(N)=O)cnn2cc(-c3cnn(CCC#N)c3)cc12` [Example 126, 6-(1-(2-cyanoethyl)-1H-pyrazol-4-yl)-4-((3R,4R)-3-ethyl-1-(methylsulfonyl)piperidin-4-ylamino)pyrrolo[1,2-b]pyridazine-3-carboxamide], the concentration for half-maximal inhibition (IC50) was 1.5 nM on GST-JAK3 enzyme and 1 nM at GST-JAK1 enzyme.

Consider `CCCC(=O)O[C@H]1CCN(c2cc3c(N[C@@H]4CCN(c5ncc(C#N)cn5)CC4(C)C)c(C(N)=O)cnn3c2)C1=O` [Example 122, (S)-1-(3-carbamoyl-4-(((R)-1-(5-cyanopyrimidin-2-yl)-3,3-dimethylpiperidin-4-yl)amino)pyrrolo[1,2-b]pyridazin-6-yl)-2-oxopyrrolidin-3-yl butyrate], for which the results for the concentration for half-maximal inhibition (IC50) at GST-JAK3 enzyme and at GST-JAK1 enzyme were 1.4 nM and 2.4 nM, respectively.

Take `N#Cc1ccccc1-c1cc2c(NC3CCOCC3)c(C(N)=O)cnn2c1` [Example 33, 6-(2-cyanophenyl)-4-(tetrahydro-2H-pyran-4-ylamino)pyrrolo[1,2-b]pyridazine-3-carboxamide]: the IC50 at GST-JAK3 enzyme stood at 40 nM; on GST-JAK1 enzyme, 110 nM.

Turning to `CCOC(=O)N1CCC[C@@H](Nc2c(C(N)=O)cnn3cc(-c4ccccc4)cc23)C1` [Example 51, ethyl (3R)-3-((3-carbamoyl-6-phenylpyrrolo[1,2-b]pyridazin-4-yl)amino)-1-piperidinecarboxylate], the IC50 was determined as 285 nM on GST-JAK3 enzyme and 903 nM on GST-JAK1 enzyme.

Turning to `CC(=O)N1C[C@H]2C[C@@H](Nc3c(C(N)=O)cnn4cc(-c5cnn(C)c5)cc34)[C@H](C)[C@H]2C1` [Example 93, 4-((3aS,4R,5R,6aS)-2-acetyl-4-methyloctahydrocyclopenta[c]pyrrol-5-ylamino)-6-(1-methyl-1H-pyrazol-4-yl)pyrrolo[1,2-b]pyridazine-3-carboxamide], the IC50 on GST-JAK3 enzyme is 0.4 nM.

As to `CC[C@@H]1CN(C(=O)[C@@H](C)O)CC[C@H]1Nc1c(C(N)=O)cnn2cc(-c3cnn(C)c3)cc12` [Example 152, 4-((3R,4R)-3-ethyl-1-((R)-2-hydroxypropanoyl)piperidin-4-ylamino)-6-(1-methyl-1H-pyrazol-4-yl)pyrrolo[1,2-b]pyridazine-3-carboxamide], the concentration for half-maximal inhibition (IC50) at GST-JAK3 enzyme was 7.8 nM; at GST-JAK1 enzyme it was 9 nM.

With `CC1(F)COCC1Nc1c(C(N)=O)cnn2cc(N3CCCC3=O)cc12` (centres unmarked) [Example 40, 4-(4-fluoro-4-methyltetrahydrofuran-3-ylamino)-6-(2-oxopyrrolidin-1-yl)pyrrolo[1,2-b]pyridazine-3-carboxamide], the half-inhibitory concentration (IC50) on GST-JAK3 enzyme stood at 15.1 nM; on GST-JAK1 enzyme, 40.3 nM.

On to `NC(=O)c1cnn2cc(-c3cccnc3)cc2c1NC1CCOCC1` [Example 31, 6-(3-pyridinyl)-4-(tetrahydro-2H-pyran-4-ylamino)pyrrolo[1,2-b]pyridazine-3-carboxamide], for which the IC50 at GST-JAK3 enzyme was 70 nM; on GST-JAK1 enzyme, 120 nM.

As to `CC[C@@H]1CN(C(=O)[C@H](C)O)CC[C@H]1Nc1c(C(N)=O)cnn2cc(-c3cnn(CC(C)C)c3)cc12` [Example 137, 4-((3R,4R)-3-ethyl-1-((S)-2-hydroxypropanoyl)piperidin-4-ylamino)-6-(1-isobutyl-1H-pyrazol-4-yl)pyrrolo[1,2-b]pyridazine-3-carboxamide], the IC50 came to 1.4 nM at GST-JAK3 enzyme and 2 nM at GST-JAK1 enzyme.

In the case of `NC(=O)c1cnn2cc(-c3ccc(F)cc3)cc2c1NC1CCOCC1` [Example 28, 6-(4-fluorophenyl)-4-(tetrahydro-2H-pyran-4-ylamino)pyrrolo[1,2-b]pyridazine-3-carboxamide], the 50% inhibitory concentration (IC50) on GST-JAK3 enzyme was determined as 7.6 nM; at GST-JAK1 enzyme, 21.6 nM.

For the molecule `CCC(=O)N1C[C@H]2C[C@@H](Nc3c(C(N)=O)cnn4cc(-c5ccc(F)nc5)cc34)[C@H](C)[C@H]2C1` [Example 97, 6-(6-fluoropyridin-3-yl)-4-((3aS,4R,5R,6aS)-4-methyl-2-propionyloctahydrocyclopenta[c]pyrrol-5-ylamino)pyrrolo[1,2-b]pyridazine-3-carboxamide], the 50% inhibitory concentration (IC50) came out at 1.4 nM on GST-JAK3 enzyme and 3.1 nM on GST-JAK1 enzyme.

In the case of `CC[C@@H]1CN(C(=O)C(C)(C)O)CC[C@H]1Nc1c(C(N)=O)cnn2cc(-c3ccnc(C)c3)cc12` [Example 131, 4-((3R,4R)-3-ethyl-1-(2-hydroxy-2-methylpropanoyl)piperidin-4-ylamino)-6-(2-methylpyridin-4-yl)pyrrolo[1,2-b]pyridazine-3-carboxamide], the IC50 was found to be 7.1 nM at GST-JAK3 enzyme and 3.6 nM on GST-JAK1 enzyme.

In the case of `NC(=O)c1cnn2cc(-c3cncc(F)c3)cc2c1NC1CCOCC1` [Example 29, 6-(5-fluoro-3-pyridinyl)-4-(tetrahydro-2H-pyran-4-ylamino)pyrrolo[1,2-b]pyridazine-3-carboxamide], the half-maximal inhibitory concentration (IC50) at GST-JAK3 enzyme was 70 nM; at GST-JAK1 enzyme, 120 nM.

On to `CS(=O)(=O)N1C[C@H](CF)[C@H](Nc2c(C(N)=O)cnn3cc(-c4ccc(C(F)(F)F)nc4)cc23)C1` (racemic) [Example 275, (+/−)-Cis-4-((-4-(fluoromethyl)-1-(methylsulfonyl)pyrrolidin-3-yl)amino)-6-(6-(trifluoromethyl)pyridin-3-yl)pyrrolo[1,2-b]pyridazine-3-carboxamide], for which the IC50 on GST-JAK1 enzyme amounted to 6.2 nM.

As to `NC(=O)c1cnn2cc(-c3ccccc3)cc2c1N[C@@H]1CCCNC1` [Example 48, (R)-6-phenyl-4-(piperidin-3-ylamino)pyrrolo[1,2-b]pyridazine-3-carboxamide, HCl], the 50% inhibitory concentration (IC50) turned out to be 57.1 nM at GST-JAK3 enzyme and 53.4 nM at GST-JAK1 enzyme.

As for `NC(=O)c1cnn2cc(-c3cnc4ccccc4c3)cc2c1NC1CCOCC1` [Example 35, 6-(3-quinolinyl)-4-(tetrahydro-2H-pyran-4-ylamino)pyrrolo[1,2-b]pyridazine-3-carboxamide], the IC50 at GST-JAK3 enzyme and at GST-JAK1 enzyme was 40 nM throughout.

For the molecule `CC(=O)N1CCN(c2cc3c(N[C@@H]4C[C@@H]5CN(S(C)(=O)=O)C[C@@H]5[C@H]4C)c(C(N)=O)cnn3c2)C1=O` [Example 60, 6-(3-acetyl-2-oxo-1-imidazolidinyl)-4-(((3aS,4R,5R,6aS)-4-methyl-2-(methylsulfonyl)octahydrocyclopenta[c]pyrrol-5-yl)amino)pyrrolo[1,2-b]pyridazine-3-carboxamide], the IC50 on GST-JAK3 enzyme turned out to be 1.8 nM; on GST-JAK1 enzyme it was 0.8 nM.

With `COc1ccc(-c2cc3c(N[C@@H]4CCN(C(=O)[C@@H](C)O)CC4(C)C)c(C(N)=O)cnn3c2)cn1` [Example 56], the IC50 at GST-JAK3 enzyme amounted to 3.3 nM.

What is called IC50 is the point on the concentration scale where inhibition reaches its midpoint.
